Paper PMC8717366, “Synthesis and Pharmacological Characterization of Visabron, a Backbone Cyclic Peptide Dual Antagonist of α4β1 (VLA-4)/α9β1 Integrin for Therapy of Multiple Sclerosis” (JACS Au, 2021)
Numbered stars: 1 amine (or outer) side, 2 acyl side, 3 side chain; on linkers, the order of the positions; unused ones are H or OH. Bridge positions count the residues as written; N and C are the ends. Square brackets hold non-standard residues; d marks the D form. Peptide text beside a SMILES is read from it. CO = O=C([*:1])[*:2]; Nlys = NCCCCNCC(=O)O

How the values were obtained:
C-Raf = target: T1, C-Raf (Homo sapiens, UniProt P04049, Y340D/Y341D); assay: PhosphoSens CSox-based kinase assay, C-Raf; assay type: biochemical; conditions: 1 mM, but not 0.1 mM; Figure 7
T1 construct: purchased Thermo PV3805
T1 sequence (P04049 whole entry Y340D/Y341D): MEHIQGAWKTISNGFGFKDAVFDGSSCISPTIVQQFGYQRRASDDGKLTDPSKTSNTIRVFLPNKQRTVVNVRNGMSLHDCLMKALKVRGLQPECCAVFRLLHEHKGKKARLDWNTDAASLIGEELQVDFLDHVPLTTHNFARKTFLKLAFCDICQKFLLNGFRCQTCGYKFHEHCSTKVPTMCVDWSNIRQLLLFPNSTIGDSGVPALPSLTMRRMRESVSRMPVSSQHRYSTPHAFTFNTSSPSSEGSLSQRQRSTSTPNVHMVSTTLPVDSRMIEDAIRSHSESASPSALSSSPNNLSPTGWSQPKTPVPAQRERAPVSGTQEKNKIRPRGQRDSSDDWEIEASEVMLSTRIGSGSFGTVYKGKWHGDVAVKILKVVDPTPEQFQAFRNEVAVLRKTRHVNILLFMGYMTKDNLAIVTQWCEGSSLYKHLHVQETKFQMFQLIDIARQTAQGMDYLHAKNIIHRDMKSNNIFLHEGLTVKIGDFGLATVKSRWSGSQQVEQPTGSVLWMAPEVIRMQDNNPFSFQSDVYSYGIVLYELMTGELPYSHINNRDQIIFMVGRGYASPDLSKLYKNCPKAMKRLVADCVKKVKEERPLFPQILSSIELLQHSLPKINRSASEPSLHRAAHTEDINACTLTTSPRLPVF
Experimental: (§1) Kinase activity was measured using the PhosphoSenstechnology (AssayQuant Technologies Inc., Marlborough, MA) as detailed in the Supporting Information. […]
(§2) Visabron c (4-4) safety by in vitro evaluation using PhosphoSens - CSox based kinase assays:
(§3) A powerful method was used to measure the activity of recombinant protein kinases using a homogeneous and continuous (kinetic) format, where the level of chelation-enhanced fluorescence (CHEF) that is directly proportional to the amount of phosphorylated, real-time sensors consisting of sulfonamido-oxine (Sox) chromophore, linked to a peptide or protein substrates of selective kinases 6. […]
(§4) Kinase activity measurements: Kinase activity was measured continuously using the PhosphoSens® technology (AssayQuant Technologies Inc., Marlborough, MA) according to the manufacturers’ recommendations. This one-step homogeneous assay format uses chelation -enhanced fluorescence via optimized substrate sensors containing the unnatural fluorogenic amino -acid Sox. […]
(§5) Final reaction conditions : Protein kinase activity was determined in 54 mM HEPES, pH 7.5, 1 mM ATP, 1.2 mM DTT, 0.012% Brij-35, 0.52 mM EGTA, 10 mM MgCl2, 1% glycerol, 0.2mg/ml BSA, and 15 μM Sox -based sensor. […]

SafetyScreen44 targets = assay: SafetyScreen44 off-target panel (44 binding, enzymatic and transporter assays); conditions: 1 mM; threshold of 40% for binding competition; Figure 5
Experimental: Screening of potentially significant off-target effects to binding and enzyme targets was performed via SafetyScreen44 offered by Eurofins Cerep-Panlabs. Visabron c (4–4) was tested at 1 and 0.1 mM. Compound binding was calculated as the percentage of inhibition of the binding of a radioactively labeled ligand specific for each target. The compound enzyme inhibitory effect was calculated as the percentage of inhibition of control enzyme activity. Results showing inhibition higher than 40% were considered to represent significant effects of the tested compound. Results showing inhibition lower than 25% as obtained with 0.1 mM Visabron c (4–4) were not considered significant and were mostly attributable to the variability of the signal around the control level. In each experiment, the respective reference compound was tested concurrently with visabron c (4–4), and the data were compared with historical values determined at Eurofins. The experiment was statistically accepted in accordance with the Eurofins validation standard operating procedure.

[1] = tested on: panel of 20 tyrosine protein kinases of immune cells; assay type: biochemical; conditions: concentration a hundred-fold higher than the IC50 for inhibition of α4β1 integrin (0.1 mM)
Experimental: as §1, §2, §3, §4, §5

For CSCC[C@@H]1NC(=O)[C@H]([C@@H](C)O)NC(=O)CN(C(=O)[C@@H](N)CCCCN)CCCCNC(=O)NCCCCN(CC(=O)N[C@@H](CC(C)C)C(N)=O)C(=O)[C@H](CC(=O)O)NC(=O)[C@H](CC(C)C)NC1=O [visabron c (4–4)] (H-K[Nlys]TMLD[Nlys]L-NH2; linker 2-7 via CO), the inhibition at 1000 µM (C-Raf) was 25 to 40%, the “Interaction with the majority of the physiological targets” value (SafetyScreen44 targets) was “did not interact” and the “Targeting of leukocyte tyrosine protein kinases” value [1] was “did not target”.
